We go through 2 compounds from patent US20170224679A1, “Use of CXCR2 Antagonists For The Prevention and/or Treatment of Chemotherapy Induced Peripheral Neuropathy (CIPN)” (GlaxoSmithKline Intellectual Property Development Limited, priority 2014, published 2017).

In one assay the test system is Caco-2 cell line. The assay is described as follows: Colorectal cancer cell line proliferation assay, Caco-2. Conditions: Caco-2, compound alone 8.5 μM, non-significant. Type of assay: cell-based.
The test system of another assay is HCT116 cell line. The assay is described as follows: Colorectal cancer cell line proliferation assay, HCT116. Type of assay: cell-based. The conditions noted are these: HCT116, compound alone 8.5 μM, non-significant. How it is done:
Cell proliferation assay: Cells were seeded in 96-well plates (Costar) at different cell densities: HCT116, 500 cells per well; Caco-2, 1000 cells per well. Total volume of the medium was 90 μl per well. Cells were incubated for 24 hours at 37° C. and 5% CO2 incubator. […] The final concentration of the Compound of Formula (A) was 8.5 μM. […] The cell proliferation rate was measured by adding 100 μl of CellTiter-Glo™ (Promega) according to the manufacturer's instructions. After 10 minutes of incubation, the cell lysates were transferred into OptiPlate-384 well, the luminescence was recorded by BioTek Synergy™ 4 Hybrid Microplate Reader with Gen5 software. All data points were generated in five replicates. Three independent experiments were performed. […] All data were presented as the mean±standard error of the mean determined from three independent experiments.

Assay [1] deals with T1, CXCR2 receptor (Homo sapiens, UniProt P25025).
T1 sequence (P25025 1-360): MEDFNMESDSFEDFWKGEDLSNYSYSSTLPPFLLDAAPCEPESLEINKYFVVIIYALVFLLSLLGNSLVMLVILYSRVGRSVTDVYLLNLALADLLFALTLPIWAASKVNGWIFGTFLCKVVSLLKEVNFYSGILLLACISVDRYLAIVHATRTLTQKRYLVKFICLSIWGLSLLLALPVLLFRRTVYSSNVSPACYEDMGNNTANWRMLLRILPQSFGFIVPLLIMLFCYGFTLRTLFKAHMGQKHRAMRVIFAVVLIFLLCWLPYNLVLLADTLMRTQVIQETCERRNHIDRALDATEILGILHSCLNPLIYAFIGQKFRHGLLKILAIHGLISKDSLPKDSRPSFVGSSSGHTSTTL
The assay is described as follows: Calcium mobilization assay (FLIPR, IL-8 induced). Details: expressed in transfected cells; host or cells: CHO-K1 cells. It is filed as cell-based. For orientation: Calcium flux is commonly read through the fluorescence of an indicator in the cells.
Protocol: CHO-K1 cells, stably expressing CXCR2 and Gαl6, were grown to 80% confluency in DMEM/F12 (HAM's) 1:1, w/10% FCS (heat inactivated), w/2 mM L-glutamine, w/0.4 mg/ml G418 while maintained at 37° C. in a 5% CO2 incubator. Twenty four hours prior to conducting the assay, the cells were harvested and plated (40,000 cells per well) in a 96 well, black wall, clear bottom plate (Packard View) and returned to the CO2 incubator. On the day of the assay, compounds were serially diluted in 100% DMSO to 300× the desired assay concentration. Growth media was aspirated from the cells and replaced with 100 μL of load media (EMEM with Earl's salts w/LGlutamine, 0.1% BSA, (Bovunlinar Cohen Fraction V from Seriologicals Corp.), 4 uM Fluo-4-acetoxymethyl ester fluorescent indicator dye (Fluo-4 AM, from Molecular Probes) and 2.5 mM probenecid) and incubated for 1 hour at 37° C. in a CO2 incubator. Load media was aspirated and replaced with 100 μL of EMEM with Earl's salts w/L-Glutamine, 0.1% gelatin and 2.5 mM probenecid and incubated for an additional 10 min. Serially diluted compound (3 μL) in DMSO at 300× was transferred to a 96 well plate containing 297 micro liters of KRH (120 mM NaCl, 4.6 mM KCl, 1.03 mM KH2PO4, 25 mM NaHCO3, 1.0 mM CaCl2, 1.1 mM MgCl2, 11 mM glucose, 20 mM HEPES (pH 7.4)) w/2.5 mM probenecid and 0.1% gelatin (compound now at 3×). […]

The subject of the next assay is Sprague-Dawley rats. The assay is described as follows: CXCR2 antagonist effect on repeat dosing oxaliplatin induced sensory injury rat. The conditions noted are these: oxaliplatin-treated rats, 20 mg/kg p.o. b.i.d. 4 weeks.
Assay [2] has as its target T1, CXCR2 receptor. As to the kind of experiment: CXCR2 Tango assay. It is filed as cell-based. Details: fused on or other part: TEV protease cleavage site and Gal4-VP16 transcription factor fused to the receptor (Invitrogen Tango construct); no part of the key. The conditions noted are these: Tango reporter gene, 80 nM hCXCL1; read-out: pIC50 against the CXCR2 receptor (converted). An excerpt: The assay measures ligand-induced activation of the receptor CXCR2 in a stable cell line containing the recombinant human CXCR2 linked to a TEV protease site and a Gal4-VP16 transcription factor (Invitrogen). Ligand binding to the receptor results in the recruitment of arrestin proteins (tagged with protease) to the receptor and triggers the release of a tethered transcription factor. The transcription factor enters the nucleus and activates the transcription of the reporter gene. The ability of a compound to inhibit CXCR2 activation is indirectly assessed by measuring the reporter gene activity.
A vial of cryopreserved cells was removed from liquid nitrogen and rapidly thawed in a water bath at 37° C. with gentle agitation. The cell contents were collected and resuspended in Assay Medium at a density of ˜200,000 cells/ml. All test compounds were dissolved in DMSO at a concentration of 10 mM and then were serially diluted to generate a 10-point dose response curve into 384-well assay plate (Greiner 781090) using an Echo (Labcyte) concentration-response program (50 nl/well). The cell-free, un-stimulated and positive controls were loaded with 50 nl/well pure DMSO to ensure that the DMSO concentration was constant across the plate for all assays. Using Multi-drop Combi (Thermo) with standard cassette, 50 μl of Assay Medium was added to cell-free control wells in compound-containing assay plate; 50 μl of the cell suspension without hCXCL1 (a CXCR2 ligand) was added to un-stimulated control wells (10,000 cells per well); and 50 μl of the cell suspension with 80 nM hCXCL1 was added to the rest of wells of the assay plate (10,000 cells per well). The cells were incubated overnight at 37° C./5% CO2·10 μl of 6× substrate mixture (LiveBLAzer™-FRET B/G substrate (CCF4-AM) Cat #K1096 from Invitrogen, Inc.) was added to each well using Multi-drop Combi (Thermo) with small-tube cassette and the plate was incubated at room temperature for 2 h in the dark. The plate was then read on EnVision using one excitation channel (409 nm) and two emission channels (460 nm and 530 nm).
The blue/green emission ratio (460 nm/530 nm) was calculated for each well by dividing the background-subtracted Blue emission values by the background-subtracted Green emission values. The dose response curve was based on sigmoidal dose-response model. All ratio data was normalized based upon the maximum emission ratio of positive control (hCXCL1) and minimum emission ratio of negative control (DMSO) on each plate.
(A reporter such as luciferase makes a cellular process visible.)

Assay [3] addresses T1, CXCR2 receptor. As to the kind of experiment: Human whole blood assay version i) (CD11b, CXCL1 stimulated). It is filed as cell-based. Further details: Assay d) measures the cellular functional activity to the native expressed human CXCR2 in whole blood; endogenous in cells; host or cells: human whole blood (neutrophils). Conditions: 10 nM CXCL1, neutrophil CD11b, read-out: pIC50 against the CXCR2 receptor (converted).
Protocol: Human blood was obtained from healthy consenting adults by trained medical professionals by venipuncture in a 10 ml syringe containing 225 μI of 0.25 M EDTA and filling with 7 ml of blood (maintained at 37° C. throughout the CXCL1 stimulation).
The test compounds were dissolved in 100% DMSO to a concentration of 10 mM and diluted to 12× the assay concentration in 1.2% DMSO (final concentration DMSO of 0.1%).
Assay: 100 μI of whole blood was added to assay tubes or 96 well U-bottom clear plates containing 10 μI of 1.2% DMSO (assay concentration of 0.1%) or 10 μI of compound dissolved in 1.2% DMSO (assay concentration range of 0.1 μM to 10 μM), then incubated for 10 minutes at 37° C., followed by addition of 10 μI of 0.1% BSA in DPBS (negative controls) or 10 μI of 120 nM CXCL1 (GROα, Prepro Tech, Inc) dissolved in 0.1% BSA in DPBS (assay concentration of 10 nM which is the EC80 for CXCL1) and incubated at 37° C. for an additional 10 min with gentle agitation before being placed on ice and assay terminated by adding 250 μI of CellFix or 250 μI of 3.7% v/v paraformaldehyde (BD Biosciences). […] Before being analyzed using an LSR flow cytometer (Becton-Dickinson) or FACS Canto II, cells were stained for 10 minutes at 4° C. with 10 μI of LDS-751 (Molecular Probes), a nucleic acid stain, allowing a cytometer threshold setting to exclude red blood cells. […]

Protocol for Caco-2 cell line: Data Analysis: pIC50 values were calculated by software GraphPad Prism 5 using sigmoidal concentration-response (variable slope). All data were presented as the mean±standard error of the mean determined from three independent experiments.
Protocol for Sprague-Dawley rats: Male Sprague-Dawley rats (109-167 g, ˜5weeks old) were housed in cages in groups of three in a controlled environment of constant temperature and moisture (temperature: 25±3° C., light: dark cycle of 12:12 hours) with food (25 g/rat/day of LabDiet 5053) and water available ad libitum.
MC (Sigma Cat #423238) was made up in water at 1% (w/v) (1 g per 100 mL water) and left on a stirrer until completely dissolved. The formulation was prepared every 6-8 days in 400-700 mL each time and stored at 4° C. protected from light. The dosing volume used was 10 mL/kg to give a 20 mg/kg p.o. dose. Vehicle treated animals were dosed b.i.d. with 1% MC w/v at 10 mL/kg p.o.
A fresh solution was prepared before every injection. Control vehicle animals were treated with 5% w/v Gluclose at 5ml/kg. Glucose (Sigma Aldrich Cat #G7021) was made up in milli-Q water at 5% (w/v) (5 g per 100 mL water) and left on a stirrer until completely dissolved.
Body weight tracking: The bodyweights of rats were measured twice a week for 4 weeks on Days 1, 3, 9, 11, 16, 18, 23, and 25. […]
Rats were anesthetized with chloral hydrate (350 mg/kg, 3.5 mL/kg, i.p.). […] The right sciatic nerve was carefully identified and conduction velocity was measured by recording action potentials from an electrode placed between the second and third digits as described by Jamieson et al., Br. J. Cancer, 88(12):1942-7 (2003), and electrically stimulating the nerve (5V, 0.5 s, single-wave pulses) via a platinum wire electrode at the sciatic notch and ankle. The length between the sciatic notch and ankle was measured.
The nerve conduction velocity was calculated as the length between sciatic notch and ankle divided by the difference between the time latencies at the stimulation sites [latency (sciatic notch)−latency (ankle)].
A 1 cm segment of the left sciatic nerve (distal end) was located and carefully dissected out. […] The ratio of inner area over entire area of nerve fibers of sciatic nerves was then calculated as an indicator of thickness of myelin sheath of nerves.

For the compound `O=C(Nc1ccc(Cl)c(S(=O)(=O)N2CCNCC2)c1O)Nc1cccc(F)c1Cl` [Compound of Formula (A), 1-(4-chloro-2-hydroxy-3-(piperazin-1-ylsulfonyl)phenyl)-3-(2-chloro-3-fluorophenyl)urea], the results for the “decrease of basal proliferation” value in the assay on Caco-2 cell line and with HCT116 cell line were 2.7±2.1% and 8.9±0.7%, respectively. In addition, the Kb at CXCR2 receptor [1] was 3.98 nM. For the same compound, the “sciatic nerve conduction velocity between sciatic notch and ankle” value with Sprague-Dawley rats (Day 29-31, mean±SEM) was determined as 40.83±1.45 m/s. For the same compound, in the assay on Sprague-Dawley rats (left sciatic nerve, mean±SEM), the “ratio of inner area over entire area of the nerve fibers (myelin sheath thickness)” value is on record as 0.17±0.01. Further, the values for the IC50 at CXCR2 receptor [2] and on CXCR2 receptor [3] were 0.631 nM and 2000 nM, respectively.

Turning to `CN1CCC(C)(S(=O)(=O)c2c(Cl)ccc(NC(=O)Nc3cccc(F)c3Cl)c2O)CC1` [Compound of Formula (D), 1-(4-chloro-3-((1,4-dimethylpiperidin-4-yl)sulfonyl)-2-hydroxyphenyl)-3-(2-chloro-3-fluorophenyl)urea], the IC50 at CXCR2 receptor [2] is 1.26 nM; at CXCR2 receptor [3], 3980 nM.
